Results on eleven compounds are retold here after ChEMBL document CHEMBL4808184, “Discovery and Optimization of DNA Gyrase and Topoisomerase IV Inhibitors with Potent Activity against Fluoroquinolone-Resistant Gram-Positive Bacteria” (J Med Chem, 2021).

Values after ≈ are worked out from the molar mass of the structure shown.

One data set relates to Staphylococcus aureus. Kind of data set: microbe, parasite or virus in culture. To be noted: ATCC 49951.
`C[C@H]1COc2c(N3CC[C@@H](C4(N)CCC4)C3)c(F)cc3cc(C(=O)O)c(=O)n1c23` yielded an MIC of 2 µg/mL (≈ 4.98 µM).

The compound `C[C@H]1COc2c(N3CC4CC(F)(F)C[C@@H](N)[C@H]4C3)c(F)cc3cc(C(=O)O)c(=O)n1c23` (single isomer, unassigned) had an MIC of 0.06 µg/mL (≈ 0.137 µM).

Regarding `C[C@H]1COc2c(N3CC(CN)C4(CCC4)C3)c(F)cc3cc(C(=O)O)c(=O)n1c23` (stereo not given in full), the MIC amounted to 2 µg/mL (≈ 4.98 µM).

For `C[C@H]1COc2c(N3C[C@H]4[C@H](C3)OCC[C@@H]4N)c(F)cc3cc(C(=O)O)c(=O)n1c23`, the MIC was 1 µg/mL (≈ 2.48 µM).

As for `Cc1c(N2CC[C@@H](C3(N)CC3)C2)c(F)cc2cc(Cc3n[nH]c(=O)o3)c(=O)n(C3CC3)c12`, the MIC amounted to 32 µg/mL (≈ 72.8 µM).

As to `Cc1c(N2CC[C@@H](C3(N)CC3)C2)c(F)cc2cc(-c3ncon3)c(=O)n(C3CC3)c12`, the MIC was determined as 0.5 µg/mL (≈ 1.22 µM).

In the case of `C[C@H]1COc2c(N3CC4OCC[C@@H](N)[C@H]4C3)c(F)cc3cc(C(=O)O)c(=O)n1c23` (single isomer, unassigned), the MIC stood at 1 µg/mL (≈ 2.48 µM).

Turning to `C[C@H]1COc2c(N3CC[C@H](O)C3)c(F)cc3cc(C(=O)O)c(=O)n1c23`, the MIC is greater than 32 µg/mL.

`CO[C@@H]1CC2CN(c3c(F)cc4cc(C(=O)O)c(=O)n5c4c3OC[C@@H]5C)C[C@@H]2[C@H](N)C1` (single isomer, unassigned) registered an MIC of 0.25 µg/mL (≈ 0.579 µM).

As for `CO[C@@H]1CC[C@@H](N)[C@H]2CN(c3c(F)cc4cc(C(=O)O)c(=O)n5c4c3OC[C@@H]5C)CC12` (single isomer, unassigned), the MIC was 0.25 µg/mL (≈ 0.579 µM).

As to `C[C@H]1COc2c(N3CC4[C@H](C3)[C@H](N)CCC4(F)F)c(F)cc3cc(C(=O)O)c(=O)n1c23` (single isomer, unassigned), the MIC was determined as 0.125 µg/mL (≈ 0.286 µM).

Test system in another data set: not listed separately
The data set can be described thus: in vitro. To be noted: Sprague-Dawley, rat, plasma.
For orientation: fraction unbound means the share of the substance not bound to proteins or other matrix. A lower fraction unbound goes with extensive binding. In the case of `C[C@H]1COc2c(N3CC4CC(F)(F)C[C@@H](N)[C@H]4C3)c(F)cc3cc(C(=O)O)c(=O)n1c23` (single isomer, unassigned), the fraction unbound at 4 h, 10 µM is 0.42.

Test system in the next data set: not listed separately
The data set can be described thus: physchem. The settings on record: octanol/water, pH 7.4.
Broadly, the logD is the decadic logarithm of the distribution of all forms, ionised or not, between an organic phase and buffer at a given pH. The compound `C[C@H]1COc2c(N3CC[C@@H](C4(N)CCC4)C3)c(F)cc3cc(C(=O)O)c(=O)n1c23` yielded a logD of -1.42.

For `C[C@H]1COc2c(N3CC4CC(F)(F)C[C@@H](N)[C@H]4C3)c(F)cc3cc(C(=O)O)c(=O)n1c23` (single isomer, unassigned), the logD was -0.26.

For the compound `C[C@H]1COc2c(N3CC(CN)C4(CCC4)C3)c(F)cc3cc(C(=O)O)c(=O)n1c23` (stereo not given in full), the logD was -0.66.

`C[C@H]1COc2c(N3C[C@H]4[C@H](C3)OCC[C@@H]4N)c(F)cc3cc(C(=O)O)c(=O)n1c23` displayed a logD of -1.72.

The compound `Cc1c(N2CC[C@@H](C3(N)CC3)C2)c(F)cc2cc(Cc3n[nH]c(=O)o3)c(=O)n(C3CC3)c12` showed a logD of 0.87.

Turning to `Cc1c(N2CC[C@@H](C3(N)CC3)C2)c(F)cc2cc(-c3ncon3)c(=O)n(C3CC3)c12`, the logD was 1.46.

Compound `C[C@H]1COc2c(N3CC4OCC[C@@H](N)[C@H]4C3)c(F)cc3cc(C(=O)O)c(=O)n1c23` (single isomer, unassigned) came in with a logD of -1.66.

`C[C@H]1COc2c(N3CC[C@H](O)C3)c(F)cc3cc(C(=O)O)c(=O)n1c23` registered a logD of -0.46.

In the case of `CO[C@@H]1CC2CN(c3c(F)cc4cc(C(=O)O)c(=O)n5c4c3OC[C@@H]5C)C[C@@H]2[C@H](N)C1` (single isomer, unassigned), the logD is -1.5.

For the compound `CO[C@@H]1CC[C@@H](N)[C@H]2CN(c3c(F)cc4cc(C(=O)O)c(=O)n5c4c3OC[C@@H]5C)CC12` (single isomer, unassigned), the logD is -1.28.

On to `C[C@H]1COc2c(N3CC4[C@H](C3)[C@H](N)CCC4(F)F)c(F)cc3cc(C(=O)O)c(=O)n1c23` (single isomer, unassigned), for which the logD was -0.78.

A further data set deals with Staphylococcus aureus. Kind of data set: microbe, parasite or virus in culture. The settings on record: ATCC 49951. This is another data set of the same source.
As to `C[C@H]1COc2c(N3CC[C@@H](C4(N)CCC4)C3)c(F)cc3cc(C(=O)O)c(=O)n1c23`, the MIC was 0.125 µg/mL (≈ 0.311 µM).

The compound `C[C@H]1COc2c(N3CC4CC(F)(F)C[C@@H](N)[C@H]4C3)c(F)cc3cc(C(=O)O)c(=O)n1c23` (single isomer, unassigned) displayed an MIC of no more than 0.03 µg/mL.

Regarding `C[C@H]1COc2c(N3CC(CN)C4(CCC4)C3)c(F)cc3cc(C(=O)O)c(=O)n1c23` (stereo not given in full), the MIC worked out at 0.125 µg/mL (≈ 0.311 µM).

Compound `C[C@H]1COc2c(N3C[C@H]4[C@H](C3)OCC[C@@H]4N)c(F)cc3cc(C(=O)O)c(=O)n1c23` had an MIC of no more than 0.03 µg/mL.

As for `Cc1c(N2CC[C@@H](C3(N)CC3)C2)c(F)cc2cc(Cc3n[nH]c(=O)o3)c(=O)n(C3CC3)c12`, the MIC came to 32 µg/mL (≈ 72.8 µM).

On to `Cc1c(N2CC[C@@H](C3(N)CC3)C2)c(F)cc2cc(-c3ncon3)c(=O)n(C3CC3)c12`, for which the MIC worked out at 0.25 µg/mL (≈ 0.611 µM).

Regarding `C[C@H]1COc2c(N3CC4OCC[C@@H](N)[C@H]4C3)c(F)cc3cc(C(=O)O)c(=O)n1c23` (single isomer, unassigned), the MIC came to 0.125 µg/mL (≈ 0.31 µM).

`C[C@H]1COc2c(N3CC[C@H](O)C3)c(F)cc3cc(C(=O)O)c(=O)n1c23` had an MIC of 0.5 µg/mL (≈ 1.44 µM).

As for `CO[C@@H]1CC2CN(c3c(F)cc4cc(C(=O)O)c(=O)n5c4c3OC[C@@H]5C)C[C@@H]2[C@H](N)C1` (single isomer, unassigned), the MIC is no more than 0.03 µg/mL.

The compound `CO[C@@H]1CC[C@@H](N)[C@H]2CN(c3c(F)cc4cc(C(=O)O)c(=O)n5c4c3OC[C@@H]5C)CC12` (single isomer, unassigned) registered an MIC of no more than 0.03 µg/mL.

The compound `C[C@H]1COc2c(N3CC4[C@H](C3)[C@H](N)CCC4(F)F)c(F)cc3cc(C(=O)O)c(=O)n1c23` (single isomer, unassigned) came in with an MIC of no more than 0.03 µg/mL.

Test system in the next data set: not listed separately
Kind of data set: in vitro. To be noted: CD1, mouse, plasma.
Consider `C[C@H]1COc2c(N3CC4CC(F)(F)C[C@@H](N)[C@H]4C3)c(F)cc3cc(C(=O)O)c(=O)n1c23` (single isomer, unassigned), for which the fraction unbound at 4 h, 10 µM is 0.41.

Test system in a further data set: not listed separately
Kind of data set: physchem.
Details: not given
A word on the pKa: it is the pH at which an ionisable group is half protonated. A high value points to a group that holds its proton tightly. `C[C@H]1COc2c(N3CC[C@@H](C4(N)CCC4)C3)c(F)cc3cc(C(=O)O)c(=O)n1c23` gave a pKa of 4.9.

For `C[C@H]1COc2c(N3CC4CC(F)(F)C[C@@H](N)[C@H]4C3)c(F)cc3cc(C(=O)O)c(=O)n1c23` (single isomer, unassigned), the pKa is 5.1.

`C[C@H]1COc2c(N3CC(CN)C4(CCC4)C3)c(F)cc3cc(C(=O)O)c(=O)n1c23` (stereo not given in full) returned a pKa of 5.2.

On to `C[C@H]1COc2c(N3C[C@H]4[C@H](C3)OCC[C@@H]4N)c(F)cc3cc(C(=O)O)c(=O)n1c23`, for which the pKa worked out at 4.8.

`Cc1c(N2CC[C@@H](C3(N)CC3)C2)c(F)cc2cc(Cc3n[nH]c(=O)o3)c(=O)n(C3CC3)c12` displayed a pKa of 8.8.

`Cc1c(N2CC[C@@H](C3(N)CC3)C2)c(F)cc2cc(-c3ncon3)c(=O)n(C3CC3)c12` gave a pKa of 8.4.

Regarding `C[C@H]1COc2c(N3CC4OCC[C@@H](N)[C@H]4C3)c(F)cc3cc(C(=O)O)c(=O)n1c23` (single isomer, unassigned), the pKa worked out at 5.2.

Regarding `C[C@H]1COc2c(N3CC[C@H](O)C3)c(F)cc3cc(C(=O)O)c(=O)n1c23`, the pKa is 5.2.

Take `CO[C@@H]1CC2CN(c3c(F)cc4cc(C(=O)O)c(=O)n5c4c3OC[C@@H]5C)C[C@@H]2[C@H](N)C1` (single isomer, unassigned): the pKa is 5.2.

Compound `CO[C@@H]1CC[C@@H](N)[C@H]2CN(c3c(F)cc4cc(C(=O)O)c(=O)n5c4c3OC[C@@H]5C)CC12` (single isomer, unassigned) showed a pKa of 4.9.

`C[C@H]1COc2c(N3CC4[C@H](C3)[C@H](N)CCC4(F)F)c(F)cc3cc(C(=O)O)c(=O)n1c23` (single isomer, unassigned) returned a pKa of 5.1.

Test system in a further data set: not listed separately
Kind of data set: in vitro. The settings on record: human, plasma.
Compound `C[C@H]1COc2c(N3CC4CC(F)(F)C[C@@H](N)[C@H]4C3)c(F)cc3cc(C(=O)O)c(=O)n1c23` (single isomer, unassigned) gave a fraction unbound at 4 h, 10 µM of 0.18.

Test system in a further data set: not listed separately
Kind of data set: in vivo. The settings on record: rat, iv, 1 mg/kg.
As usually defined, the half-life is the time in which the quantity being followed falls by half. Higher therefore signals slow decline. In turn, `C[C@H]1COc2c(N3CC4CC(F)(F)C[C@@H](N)[C@H]4C3)c(F)cc3cc(C(=O)O)c(=O)n1c23` (single isomer, unassigned) showed a half-life at 24 h of 3.46 h.

Test system in the next data set: not listed separately
The data set can be described thus: in vivo. The settings on record: rat, po, 3 mg/kg.
The Cmax is the maximum level reached in the sampled fluid or tissue. Take `C[C@H]1COc2c(N3CC4CC(F)(F)C[C@@H](N)[C@H]4C3)c(F)cc3cc(C(=O)O)c(=O)n1c23` (single isomer, unassigned): the peak level (Cmax at 24 h) was 1700 nM.

Test system in another data set: not listed separately
Kind of data set: in vivo. The settings on record: rat, po, 3 mg/kg. The source holds these as a separate data set.
For orientation: Tmax means the time at which the peak concentration occurs. Regarding `C[C@H]1COc2c(N3CC4CC(F)(F)C[C@@H](N)[C@H]4C3)c(F)cc3cc(C(=O)O)c(=O)n1c23` (single isomer, unassigned), the Tmax at 24 h stood at 2 h.
